Legend:
hTERT = hTERT mRNA and protein expression, western blot and qPCR (FIG. 10, 11); type: cell-based, human; conditions: LNCaP, different concentrations, western blot
Experimental: To analyze the changes in the hTERT expression level and telomerase activity by the treatment with the produced peptides, real-time PCR was performed. Total RNA was extracted from cells by using an Easy-blue RNA extraction reagent (Intron, Korea), and subsequently, the extracted RNA was reverse transcribed using M-ML V reverse transcriptase (Invitrogen, CA). The PCR reaction was then performed using a LightCycler 480 SYBR Green I Master (Roche, Germany) according to the manufacturer's instructions. […]
Quantitative real-time RT-PCR (qRT-PCR) was performed using a Power SYBR Green 1-Step Kit and an ABI 7000 Real Time PCR System (Applied Biosystems, Carlsbad, CA, USA) according to the manufacturer's indications. […] The results were expressed as the ratio of target PCR product to GAPDH product. […] The quantification was performed using the ΔΔCT method (Applied Biosystems) with the RQ manager 1.2 software. Data are expressed as mean±SD. […]
After treatment with GV1001, HS1001, HS1002, and GnRH, the changes in hTERT mRNA and protein expression level were investigated for each peptide. […] To investigate the telomerase activity reducing effect of the peptides, prostate cancer cell lines (LNCaP) were treated with each drug at 300 μM every 24 h for a total of 72 h and then measured for telomerase activity through qPCR. […]

[1] = test system: c-Myc, AKT, ERK1/2 in LNCaP tumor xenografts; assay: Western blot of c-Myc and signaling proteins in LNCaP-xenografted tumors (FIG. 14); type: in vivo, mouse; conditions: LNCaP xenograft; HS1002 1 mg/kg/day, LA 0.1 mg/kg/day s.c.
Experimental: The cells and tumor tissues were homogenized using the PRO-PREP™ extraction solution (iNtRON Biotechnology, Seongnam, Korea). After incubation, the homogenate was centrifuged at 16,000×g for 20 min at 4° C., and the supernatant was collected for western blot analysis. Subsequently, an equivalent quantity of protein was separated using sodium dodecyl sulfate polyacrylamide gels and transferred onto a polyvinylidene difluoride (PVDF) membrane. The PVDF membranes were incubated with the primary antibodies overnight at 4° C., washed with tris-buffered saline, and then incubated with HRP-conjugated anti-mouse or anti-rabbit antibodies. The bands were visualized using a ChemiDoc imaging system (Bio-Rad, Hercules, CA, USA). The band intensities were determined using an Image J software.
All mice were purchased from Central Lab Animal Inc. ([…]). They were raised in a 12 h environmental light/dark cycle with controlled temperature (22±2° C.) conditions. The experimental protocol was approved by the Sungkyunkwan University Institutional Animal Care and Use Committee (SKKUIACUC2021-06-27-1, SKKUIACUC2023-01-07-1). For the establishment of tumors, LNCaP (1×10^7), MC38 (2×10^5), and 4T1 (1×10^6) suspended in serum-free media containing 50% Matrigel was subcutaneously administered in the right flank of mice, respectively. The tumor volumes (V) were calculated using a caliper and the standard equation: V (mm^3)=0.52 (ab^2) (a=length, b=width). Once the tumor reached 100-200 mm^3, the mice were randomly divided into different groups and subcutaneously injected with a vehicle or each peptide every day.
To investigate the anticancer effect of HS1002, the present inventors observed the volume of cancer cells after transplanting the cancer cells into experimental animals. Specifically, mice (4-week-old male BALB/c nude mice; Central Lab. Animal Inc., Seoul, Korea) were prepared, and tumor cells (1×10^7 LNCaP cells) suspended in 1 mL of a serum-free medium containing 50% Matrigel were percutaneously injected into the upper flank of each nude mouse. When the tumor cell volume reached about 200 mm^3, the mice were randomly assigned to a vehicle control group, a leuprolide acetate-treated group, and test groups (GV1001-treated group and HS1002-treated group), respectively. Leuprolide acetate (0.1 mg/kg/day) and GV1001 and HS1002 (1 mg/kg/day) were injected subcutaneously for 13 days.

CCNC(=O)[C@@H]1CCCN1C(=O)[C@@H](NC(=O)[C@H](Cc1ccccc1)NC(=O)[C@H](CCCNC(=N)N)NC(=O)[C@H](CC(C)C)NC(=O)[C@H](CCCNC(=N)N)NC(=O)[C@H](Cc1ccc(O)cc1)NC(=O)[C@H](CO)NC(=O)[C@H](Cc1c[nH]c2ccccc12)NC(=O)[C@H](Cc1c[nH]cn1)NC(=O)[C@@H]1CCC(=O)N1)[C@@H](C)CC [HS1002]
hTERT protein expression, concentration dependence (hTERT): reduced with an increasing concentration
expression of c-Myc in tumor tissue [1]: significantly downregulated
expression of p-AKT in tumor tissue [1]: significantly downregulated
expression of p-ERK1/2 in tumor tissue [1]: significantly downregulated

Source: patent US20240247031A1, “COMPOSITION FOR TREATING CANCER CONTAINING TELOMERASE-TARGETING GNRH ANTAGONIST-DERIVED PEPTIDE HS1002” (Research & Business Foundation Sungkyunkwan University, priority 2023, published 2024)
